ChEMBL document CHEMBL2321873, “1-(4-Phenylpiperazin-1-yl)-2-(1H-pyrazol-1-yl)ethanones as novel CCR1 antagonists” (Bioorg Med Chem Lett, 2013)

Legend:
[1] = Half life in Sprague-Dawley rat at 0.5 mg/kg, iv; assay type: ADME, organism-based; parameters: dose 0.5 mg/kg, route intravenous; conditions: in vivo
[2] = Oral bioavailability in Sprague-Dawley rat at 5 mg/kg; assay type: ADME, organism-based; conditions: in vivo
[3] = Clearance in Sprague-Dawley rat at 0.5 mg/kg, iv; assay type: ADME, organism-based; parameters: dose 0.5 mg/kg, route intravenous; conditions: in vivo
[4] = Stability of the compound at pH 7.4; assay type: physicochemical; conditions: buffer

| half-life [1] [h] | bioavailability [2] [%] | clearance [3] [mL/min/kg] | Stability [4] | Structure (SMILES) |
| --- | --- | --- | --- | --- |
| 1.9 | 10 | 23 | – | Cc1c(Cl)c(C(F)(F)F)nn1CC(=O)N1CCN(c2ccc(F)cc2)CC1 |
| – | – | – | Unstable | COc1cc(N2CCN(C(=O)Cn3nc(C(F)(F)F)c(Cl)c3C)[C@H](CO)C2)ccc1Cl |
